Assay results: patent US11839683B2, “Method of rapidly achieving therapeutic concentrations of triptans for treatment of migraines” (EMERGEX USA CORPORATION, priority 2016, dated 2023)
Where two headings read alike, the source gives them in different places.

Assays:
[1] = In vitro dissolution, USP Paddle over Disk apparatus (USP apparatus 5); type: physicochemical; conditions: M207 1.9 mg patch
Procedure: In vitro dissolution of […] 1.9 mg patches were evaluated using standard USP Paddle over Disk apparatus (USP apparatus 5) with Distek […] 6-position dissolution tester. The paddle height was set at 25 mm above patch and rotated at 50 RPM. An USP vessel was filled with degassed 500 mL PBS dissolution medium and the temperature was controlled at 32° C. A full patch assembly containing the coated patch adhered to the center of an inner ring and then attached to an outer ring was inserted along the vessel wall into the vessel with the coated microprojections facing upright. […] […] patches stored at room temperature and at 40° C./75% relative humidity for 10 months were evaluated.

[2] = clinical; conditions: both, human, in vivo; for AUC(0-inf): AUCinf
Procedure: The final treatment administered was 3.8 mg on a 10 cm^2 patch using an applicator with 0.52 Joule of application energy in the intracutaneous microneedle system described herein. The products tested were:
This was a single-center, open-label, randomized five-way crossover study (Part 1) followed by a sequential study of two additional treatments (Parts 2 and 3). After obtaining informed consent and establishing eligibility, each subject received each of the seven study treatments once, followed by in-clinic monitoring and extensive blood sample collection for pharmacokinetic analysis. […] Plasma samples from the initial dosing days were sent to the analytical laboratory for analysis, and tolerability for each of the dose levels was summarized. […] During Part 3, subjects received a single 3.8 mg patch (applied with a 0.52 J applicator) and also completed identical procedures to the previous dosing days. After completion of the seven dosing days, subjects were assessed one final time and dismissed from the study.
Twenty subjects were enrolled in the study, 10 males and 10 females. The subjects mean age was 29 years±3.5 years with a mean BMI of 24.4±3.5.
PK parameters were summarized by treatment group using descriptive statistics (arithmetic means, standard deviations, coefficients of variation, sample size, minimum, maximum, and median).
Graphs of apparent dose linearity and proportionality of PK parameters (AUCt, AUCinf and Cmax) were compiled.

[3] = 10 mg oral, Seaber1997, cited from earlier work
[4] = test system: migraine; conditions: cited from earlier work
[5] = NASAL 2.5 mg, 1 hour, Charlesworth et al, 2003
[6] = NASAL 2.5 mg, 2 hour, Charlesworth et al, 2003
[7] = NASAL 2.5 mg, 4 hour, Charlesworth et al, 2003
[8] = ODT 2.5 mg, 1 hour, Dowson et al, 2002
[9] = ODT 2.5 mg, 2 hour, Dowson et al, 2002
[10] = TABLET 2.5 mg, 1 hour, Pascual et al, 2000
[11] = TABLET 2.5 mg, 1 hour, Steiner et al, 2003
[12] = TABLET 2.5 mg, 2 hour, Pascual et al, 2000
[13] = TABLET 2.5 mg, 2 hour, Steiner et al, 2003
[14] = TABLET 5 mg, 1 hour, Dahlof et al 1998
[15] = TABLET 5 mg, 1 hour, Geraud et al, 2000
[16] = TABLET 5 mg, 2 hour, Dahlof et al 1998
[17] = TABLET 5 mg, 2 hour, Geraud et al, 2000
[18] = TABLET 5 mg, 4 hour, Geraud et al, 2000
[19] = TABLET 10 mg, 1 hour, Dahlof et al 1998
[20] = TABLET 10 mg, 2 hour, Dahlof et al 1998

## CN(C)CCc1c[nH]c2ccc(C[C@H]3COC(=O)N3)cc12 [Zolmitriptan, zolmitriptan]
[1]; E-beam irradiated, stored at 40° C./75% RH for 10 months, 0 s
  Percent Dissolution (% D): 0%
[1]; E-beam irradiated, stored at 40° C./75% RH for 10 months, 20 s
  Percent Dissolution (% D): 5-10%
[1]; E-beam irradiated, stored at 40° C./75% RH for 10 months, 40 s
  Percent Dissolution (% D): 10-50%
[1]; E-beam irradiated, stored at 40° C./75% RH for 10 months, 60 s
  Percent Dissolution (% D): 50-100%
[1]; E-beam irradiated, stored at 40° C./75% RH for 10 months, 80 s
  Percent Dissolution (% D): 100%
[1]; E-beam irradiated, stored at 40° C./75% RH for 10 months, 100 s
  Percent Dissolution (% D): 100%
[1]; E-beam irradiated, stored at RT for 10 months, 0 s
  Percent Dissolution (% D): 0%
[1]; E-beam irradiated, stored at RT for 10 months, 20 s
  Percent Dissolution (% D): 60-80%
[1]; E-beam irradiated, stored at RT for 10 months, 40 s
  Percent Dissolution (% D): 90-100%
[1]; E-beam irradiated, stored at RT for 10 months, 60 s
  Percent Dissolution (% D): 100%
[1]; E-beam irradiated, stored at RT for 10 months, 80 s
  Percent Dissolution (% D): 100%
[1]; E-beam irradiated, stored at RT for 10 months, 100 s
  Percent Dissolution (% D): 100%
[1]; non-irradiated, stored at 40° C./75% RH for 10 months, 0 s
  Percent Dissolution (% D): 0%
[1]; non-irradiated, stored at 40° C./75% RH for 10 months, 20 s
  Percent Dissolution (% D): 0%
[1]; non-irradiated, stored at 40° C./75% RH for 10 months, 40 s
  Percent Dissolution (% D): 10-40%
[1]; non-irradiated, stored at 40° C./75% RH for 10 months, 60 s
  Percent Dissolution (% D): 90-100%
[1]; non-irradiated, stored at 40° C./75% RH for 10 months, 80 s
  Percent Dissolution (% D): 100%
[1]; non-irradiated, stored at 40° C./75% RH for 10 months, 100 s
  Percent Dissolution (% D): 100%
[2]
  Tmax, Mean (SD): 17.10 (11.82)
  Tmax, Median: 17.5 min
  t1/2, Mean (SD): 91.70 (18.7)
  t1/2, Median: 96.2 min
[2]; 0.48 mg, AUC2 hrs, Mean (SD)
  AUC(0-t): 2.11 ng·h/mL
[2]; 0.48 mg, AUC2 hrs, Median
  AUC(0-t): 2.11 ng·h/mL
[2]; 0.48 mg, Mean (SD)
  AUC(0-inf): 3.81 ng·h/mL
  Cmax: 1.84 ng/mL
[2]; 0.48 mg, Median
  AUC(0-inf): 3.78 ng·h/mL
  Cmax: 1.8 ng/mL
[2]; 0.48 mg, AUCt, Mean (SD)
  AUC(0-t): 2.81 ng·h/mL
[2]; 0.48 mg, AUCt, Median
  AUC(0-t): 2.78 ng·h/mL
[2]; 0.48 mg, Tmax, Mean (SD)
  Tmax: 17.3 min
[2]; 0.48 mg, Tmax, Median
  Tmax: 20 min
[2]; 0.48 mg, t1/2, Mean (SD)
  half-life: 69.1 min
[2]; 0.48 mg, t1/2, Median
  half-life: 64.6 min
[2]; 1.9 mg
  AUCinf, Median: 14.5 ng·h/mL
[2]; 1.9 mg, AUC2 hrs, Mean (SD)
  AUC(0-t): 7.36 ng·h/mL
[2]; 1.9 mg, AUC2 hrs, Median
  AUC(0-t): 7.75 ng·h/mL
[2]; 1.9 mg, Mean (SD)
  AUC(0-inf): 14.1 ng·h/mL
  Cmax: 6.76 ng/mL
[2]; 1.9 mg, AUCt, Mean (SD)
  AUC(0-t): 12.3 ng·h/mL
[2]; 1.9 mg, AUCt, Median
  AUC(0-t): 12.7 ng·h/mL
[2]; 1.9 mg, Median
  Cmax: 6.4 ng/mL
[2]; 1.9 mg, Tmax, Mean (SD)
  Tmax: 17.9 min
[2]; 1.9 mg, Tmax, Median
  Tmax: 20 min
[2]; 1.9 mg, t1/2, Mean (SD)
  half-life: 87.8 min
[2]; 1.9 mg, t1/2, Median
  half-life: 84.7 min
[2]; 3.8 mg
  t1/2, Mean (SD): 91.00 (18.80)
[2]; 3.8 mg, AUC2 hrs, Mean (SD)
  AUC(0-t): 19.3 ng·h/mL
[2]; 3.8 mg, AUC2 hrs, Median
  AUC(0-t): 18.4 ng·h/mL
[2]; 3.8 mg, Mean (SD)
  AUC(0-inf): 33.8 ng·h/mL
  Cmax: 22.6 ng/mL
[2]; 3.8 mg, Median
  AUC(0-inf): 32.2 ng·h/mL
  Cmax: 19.9 ng/mL
[2]; 3.8 mg, AUCt, Mean (SD)
  AUC(0-t): 31.6 ng·h/mL
[2]; 3.8 mg, AUCt, Median
  AUC(0-t): 29.9 ng·h/mL
[2]; 3.8 mg, Tmax, Mean (SD)
  Tmax: 16.1 min
[2]; 3.8 mg, Tmax, Median
  Tmax: 15 min
[2]; 3.8 mg, t1/2, Median
  half-life: 87.2 min
[2]; Tmax, Mean (SD)
  Tmax: 18.4 min
[2]; Tmax, Median
  Tmax: 20 min
[2]; mean Tmax
  Tmax: 16.1 to 18.4 min
[2]; po, 2.5 mg, Median
  Cmax: 3.7 ng/mL
[2]; t1/2, Mean (SD)
  half-life: 77.2 min
[2]; t1/2, Median
  half-life: 82 min
[3]; (F)
  AUC0-last: 108.6 ng·h/mL
  Cmax: 20.9 ng/mL
[3]; (M)
  AUC0-last: 84.4 ng·h/mL
  Cmax: 16.6 ng/mL
[4]; [5]
  % PAIN FREE: 10.6%
  % PAIN RELIEF: 40.2%
[4]; [6]
  % PAIN FREE: 21.0%
  % PAIN RELIEF: 55.4%
[4]; [7]
  % PAIN FREE: 38.4%
  % PAIN RELIEF: 63.4%
[4]; [8]
  % PAIN FREE: 7.8%
  % PAIN RELIEF: 45.0%
[4]; [9]
  % PAIN FREE: 27.0%
  % PAIN RELIEF: 63.0%
[4]; ODT 2.5 mg, 4 hour, Dowson et al, 2002
  % PAIN FREE: 37.0%
[4]; [10]
  % PAIN FREE: 10.4%
  % PAIN RELIEF: 35.3%
[4]; [11]
  % PAIN FREE: 5.7%
  % PAIN RELIEF: 25.1%
[4]; [12]
  % PAIN FREE: 35.6%
  % PAIN RELIEF: 66.8%
[4]; [13]
  % PAIN FREE: 26.3%
  % PAIN RELIEF: 59.6%
[4]; TABLET 2.5 mg, 4 hour, Steiner et al, 2003
  % PAIN RELIEF: 25.1%
[4]; [14]
  % PAIN FREE: 10.0%
  % PAIN RELIEF: 44.0%
[4]; [15]
  % PAIN FREE: 7.8%
  % PAIN RELIEF: 34.2%
[4]; [16]
  % PAIN FREE: 39.0%
  % PAIN RELIEF: 66.0%
[4]; [17]
  % PAIN FREE: 29.3%
  % PAIN RELIEF: 58.7%
[4]; [18]
  % PAIN FREE: 54.6%
  % PAIN RELIEF: 80.5%
[4]; [19]
  % PAIN FREE: 9.0%
  % PAIN RELIEF: 40.0%
[4]; [20]
  % PAIN FREE: 39.0%
  % PAIN RELIEF: 71.0%
[4]; lowest oral dose
  pain freedom at 2 hours: 29%
  pain relief at 2 hours: 62%
